In patent US4684645A, “Benzofused lactams as cholecystokinin antagonists” (Merck & Co., Inc., priority 1985, dated 1987):

Assays:
[1] = system: guinea pig gall bladder; assay: CCK induced contraction, isolated guinea pig gall bladder; set-up: species or system guinea pig (male Hartley); settings: at 26 μM
Procedure: Male Hartley guinea pigs (400-600 g) were sacrificed by decapitation. The whole gall bladder was dissected free from adjacent tissues and cut into two equal halves. The gall bladder strips were suspended along the axis of bile duct in 5 ml organ bath under 1 g tension. The organ bath contained a Kreb's bicarbonate solution (NaCl 118 mM, KCl 4.75 mM, CaCl 2.54 mM, KH2 PO4 1.19 mM, Mg SO4 1.2 mM, NaHCO3 25 mM and dextrose 11 mM) maintained at 32° C. and bubbled with 95% O2 and 5% CO2. Isometric contractions were recorded using Statham (60 g; 0.12 mm) strain gauges and a Hewlett-Packard (77588) recorder. The tissues were washed every 10 minutes for 1 hr to obtain equilibrium prior to the beginning of the study. CCK-8 was added cumulatively to the baths and EC50 's determined using egression analysis. After washout (every 10 minutes for 1 hr), the compound of Formula I was added at least 5 minutes before the addition of CCK-8 and the EC50 of CCK-8 in the presence of the compound of Formula I similarly determined.

[2] = biological target: CCK receptor; assay: 125I-CCK-33 receptor binding (pancreas or brain preparation not given); settings: concentration dependent inhibition; tissue (rat pancreas or guinea pig brain) not stated; read-out: IC50, inhibition of specific 125I-CCK-33 binding
Procedure: The biological activity of the compounds of Formula I have been evaluated using an ^125 I-CCK receptor binding assay and in vitro isolated tissue preparations.
(§1) CCK-33 was radiolabeled with ^125 I-Bolton Hunter reagent (2000 Ci/mmole) as described by Sankara et al. (J. Biol. Chem. 254: 9349-9351, 1979). Receptor binding was performed according to Innis and Snyder (Proc. Natl. Acad. Sci. 77: 6917-6921, 1980) with the minor modification of adding the additional protease inhibitors, phenylmethane sulfonyl fluoride and o-phenanthroline. The latter two compounds have no effect on the ^125 I-CCK receptor binding assay.
Male Sprague-Dawley rats (200-350 g) were sacrificed by decapitation. The whole pancreas was dissected free of fat tissue and was homogenized in 20 volumes of ice-cold 50 mM, Tris HCl (pH 7.7 at 25° C.) with a Brinkmann Polytron PT 10. The homogenates were centrifuged at 48,000 g for 10 min. Pellets were resuspended in Tris Buffer, centrifuged as above and resuspended n 200 volumes of binding assay buffer (50 mM Tris HCl, pH 7.7 at 25° C., 5 mM dithiothriethel, 0.1 mM bacitracin, 1.2 mM phenylmethane sulfonyl fluoride and 0.5 mM o-phenanthroline). For the binding assay, 25 μl of buffer (for total binding) or unlabeled CCK-8 sulfate to give a final concentration of lμM (for nonspecific binding) or the compounds of Formula I (for determination inhibition of ^125 I-CCK binding) and 25 μl of ^125 I-CCK-33 (30,000-40,000 cpm) were added to 450 μl of the membrane suspensions in microfuge tubes. All assays were run in duplicate or triplicate. […] The supernatant was aspirated and discarded, pellets were counted with a Beckman gamma 5000. […]
Male Hartley guinea pigs (300-500 g) were sacrificed by decapitation and the brains were removed and placed in ice-cold 50 mM, Tris HCl plus 7.58 g/l Tritma-7.4 (pH 7.4 at 25° C.) Cerebral cortex was dissected and used as a receptor source. […] The supernatant was aspirated and discarded, pellets were counted with a Beckman gamma 5000.

[3] = system: guinea pig ileum; assay: CCK induced contraction, isolated longitudinal muscle of guinea pig ileum; set-up: species or system guinea pig (male Hartley); settings: at 4.2 μM
Procedure: Longitudinal muscle strips with attached nerve plexus were prepared as described previously (Brit J. Pharmac. 23: 356-363, 1964; J. Physiol. 194: 13-33, 1969). Male Hartley guinea pigs were decapitated and the ileum was removed (10 cm of the terminal ileum was discarded and the adjacent 20 cm piece was used). A piece (10 cm) of the ileum was stretched on a glass pipette. Using a cotton applicator to stroke tangently away from the mesentery attachment at one end, the longitudinal muscle was separated from the underlying circular muscle. The longitudinal muscle was then tied to a thread and by gently pulling, stripped away from the entire muscle. A piece of approximately 2 cm was suspended in 5 ml organ bath containing Krebs solution and bubbled with 95% O2 and 5% CO2 at 37° C. under 0.5 g tension. CCK-8 was added cumulatively to the baths and EC50 values in the presence and absence of compounds of Formula I determined as described in the gall bladder protocol (above).

[4] = system: CCK receptor (pancreas); assay: CCK Receptor Binding (Pancreas), 125I-CCK-33; set-up: species or system rat (male Sprague-Dawley); settings: added as protease inhibitors; binding assay buffer
Procedure: as §1
Male Sprague-Dawley rats (200-350 g) were sacrificed by decapitation. The whole pancreas was dissected free of fat tissue and was homogenized in 20 volumes of ice-cold 50 mM, Tris HCl (pH 7.7 at 25° C.) with a Brinkmann Polytron PT 10. The homogenates were centrifuged at 48,000 g for 10 min. Pellets were resuspended in Tris Buffer, centrifuged as above and resuspended n 200 volumes of binding assay buffer (50 mM Tris HCl, pH 7.7 at 25° C., 5 mM dithiothriethel, 0.1 mM bacitracin, 1.2 mM phenylmethane sulfonyl fluoride and 0.5 mM o-phenanthroline). […] The supernatant was aspirated and discarded, pellets were counted with a Beckman gamma 5000.

Compound | IC50 [2] | effect on the 125I-CCK receptor binding assay [4] | also measured
CCOC(=O)CN1C(=O)C(NC(CCc2ccccc2)C(=O)OCC)CCc2ccccc21 (racemic) [1-Carboethoxymethyl-3-(1-carboethoxy-3-phenyl-1-propyl)-amino homodihydrocarbostyril] | – | – | effect on maximal responses to CCK [1]: without reducing maximal responses; shift of CCK dose response [1]: about 10 times
COC(=O)CN1C(=O)C(NC(CCc2ccccc2)C(=O)OC)CCc2ccccc21 (racemic) [1-Carbomethoxymethyl-3-(1-carbomethoxy-3-phenyl-1-propyl)aminohomodihydrocarbostyril] | 10000 nM | – | –
CCOC(=O)C(CCc1c[nH]c2ccccc12)NC1CCc2ccccc2N(CC(=O)OC(C)(C)C)C1=O (stereo not drawn) [1-t-Butoxycarbonylmethyl-3-(1-carboethoxy-3-(3)indolyl-1-propyl)amino homodihydrocarbostyril] | 400 nM | – | effect on maximal responses to CCK [3]: without affecting maximal responses; shift of CCK dose response to the right [3]: approximately 2.6 fold
CCOC(=O)C(CCc1ccccc1)NC1CCc2ccccc2N(CC(=O)OC(C)(C)C)C1=O (stereo not drawn) [1-t-Butoxycarbonylmethyl-3-(1-carboethoxy-3-phenyl-1-propyl]-amino homodihydrocarbostyril] | 2400 nM | – | –
c1cnc2c(c1)ccc1cccnc12 [o-phenanthroline] | – | no effect | –
O=S(=O)(F)Cc1ccccc1 [phenylmethane sulfonyl fluoride] | – | no effect | –
